Laboratory results reported in ChEMBL document CHEMBL3727350, “Agents and methods for treating ischemic and other diseases” (2014).
Calls of active or inactive are those of the source. No cut-off for these calls is given here.

Experiments:
[1] = Inhibition of cell proliferation of mouse NIH/3T3 cells at 1.25 to 10 uM incubated for 72 hrs by propidium iodide staining assay; format: cell-based; conditions: nih3t3, 72 h
B16-F1 = experiment: Inhibition of cell proliferation of mouse B16-F1 cells at 1.25 to 10 uM incubated for 72 hrs by SRB assay; format: functional, cell-based
[2] = biological target: Transient receptor potential cation channel subfamily M member 7 (Mus musculus) (UniProt Q923J1); experiment: Inhibition of Tet-induced Flag-tagged mouse TRPM7 expressed in HEK293 cells assessed as inhibition of channel-mediated cell death in presence of Mg2+ incubated for 24 to 48 hrs by propidium iodide uptake assay; format: cell-based; design: concentration or dose not given beside the values; conditions: concentration not given here
SW13 [3] = experiment: Inhibition of cell proliferation of human SW13 cells at 1.25 to 10 uM incubated for 48 hrs by BrdU incorporation assay; format: functional, cell-based
H9c2 [4] = experiment: Toxicity against rat H9c2 cells at 5 uM; format: cell-based; conditions: h9c2, 5 µM
[5] = biological target: Transient receptor potential cation channel subfamily M member 7 (Rattus norvegicus) (UniProt Q925B3); experiment: Inhibition of TRPM7 in rat H9C2 cells assessed as reduction in channel currents at 0.3 to 30 uM by whole cell patch clamp assay; format: cell-based
[6] = Inhibition of cell proliferation of human WERI cells at 10 uM incubated for 48 to 96 hrs; format: functional
B16-F10 = experiment: Inhibition of cell proliferation of mouse B16F10 cells at 1.25 to 10 uM incubated for 72 hrs by SRB assay; format: functional, cell-based
[7] = biological target: Transient receptor potential cation channel subfamily M member 7 (Mus musculus) (UniProt Q923J1); experiment: Inhibition of TRPM7 in mouse mouse primary cortical neurons exposed to 2 hrs oxygen glucose deprivation condition assessed as reduction in TRPM7-mediated anoxic cell death measured after 20 hrs by propidium iodide uptake assay; format: cell-based; conditions: Cerebral cortex neuron
[8] = biological target: Transient receptor potential cation channel subfamily M member 7 (Mus musculus) (UniProt Q923J1); experiment: Inhibition of Tet-induced Flag-tagged mouse TRPM7 expressed in HEK293 cells assessed as reduction in channel currents at 0.3 to 30 uM by whole cell patch clamp assay; format: cell-based
[9] = biological target: Transient receptor potential cation channel subfamily M member 7 (Mus musculus) (UniProt Q923J1); experiment: Inhibition of TRPM7 in mouse primary neuronal cells exposed to oxygen glucose deprivation condition for 1 to 3 hrs assessed as reduction in TRPM7-mediated anoxic cell death dosed before oxygen glucose deprivation condition by propidium iodide uptake assay; conditions: Primary neuron
HeLa [10] = experiment: Inhibition of cell proliferation of human HeLa cells at 1.25 to 10 uM incubated for 48 hrs by BrdU incorporation assay; format: functional, cell-based
H9c2 [11] = experiment: Toxicity against rat H9c2 cells at 10 uM; format: cell-based; conditions: h9c2, 10 µM
SW13 [12] = experiment: Inhibition of cell proliferation of human SW13 cells at 1.25 to 10 uM incubated for 72 hrs by SRB assay; format: functional, cell-based
MDA-MB-231 [13] = experiment: Inhibition of cell proliferation of human MDA-MB-231 cells at 1.25 to 10 uM incubated for 72 hrs by SRB assay; format: functional, cell-based
[14] = biological target: Transient receptor potential cation channel subfamily M member 7 (Mus musculus) (UniProt Q923J1); experiment: Inhibition of TRPM7 in mouse primary neuronal cells exposed to oxygen glucose deprivation condition for 1 to 3 hrs assessed as reduction in TRPM7-mediated anoxic cell death dosed after oxygen glucose deprivation condition by propidium iodide uptake assay; conditions: Primary neuron
[15] = biological target: Transient receptor potential cation channel subfamily M member 7 (Mus musculus) (UniProt Q923J1); experiment: Inhibition of TRPM7 in mouse mouse primary cortical neurons exposed to 1 hrs oxygen glucose deprivation condition assessed as reduction in TRPM7-mediated anoxic cell death at 1.25 to 10 uM measured after 20 hrs by propidium iodide uptake assay; format: cell-based; conditions: Cerebral cortex neuron
[16] = biological target: Transient receptor potential cation channel subfamily M member 7 (Rattus norvegicus) (UniProt Q925B3); experiment: Inhibition of TRPM7 in Sprague-Dawley rat retinal explants dissociated and subjected to 1 hr oxygen-glucose deprivation assessed as reduction in retinal cell death at 1 and 5 uM
[17] = biological target: Transient receptor potential cation channel subfamily M member 7 (Rattus norvegicus) (UniProt Q925B3); experiment: Inhibition of TRPM7 in rat H9c2 cells assessed as protection against oxygen glucose deprivation-induced cell death at 0.05 to 5 uM pre-treated for 24 hrs before OGD in presence of 1 uM nifedipine; format: cell-based
SW13 [18] = experiment: Inhibition of cell proliferation of human SW13 cells at 10 uM incubated for 48 to 96 hrs; format: functional
[19] = Inhibition of cell proliferation of mouse B16-F1 cells at 10 uM incubated for 48 to 96 hrs; format: functional
[20] = biological target: Transient receptor potential cation channel subfamily M member 7 (Rattus norvegicus) (UniProt Q925B3); experiment: Inhibition of TRPM7 in rat H9c2 cells assessed as protection against oxygen glucose deprivation-induced cell death at 0.05 to 5 uM; format: cell-based
Mus musculus [21] = species on record: Mus musculus; experiment: Inhibition of potassium channel in mouse cortical neurons assessed as reduction in potassium currents
MDA-MB-231 [22] = experiment: Inhibition of cell proliferation of human MDA-MB-231 cells at 10 uM incubated for 48 to 96 hrs; format: functional
[23] = biological target: Transient receptor potential cation channel subfamily M member 7 (Rattus norvegicus) (UniProt Q925B3); experiment: Inhibition of TRPM7 in Sprague-Dawley rat retinal explants subjected to 1 hr oxygen-glucose deprivation assessed as reduction in retinal ischemia at 5 uM
Mus musculus [24] = experiment: Toxicity in mouse up to 150 uM, iv; format: organism-based; conditions: in vivo
[25] = biological target: Transient receptor potential cation channel subfamily M member 7 (Rattus norvegicus) (UniProt Q925B3); experiment: Inhibition of TRPM7 in rat H9C2 cells exposed to 6 hrs oxygen glucose deprivation condition followed by 2 hrs recovery assessed as reduction in TRPM7-mediated anoxic cell death at 0.05 to 5 uM by propidium iodide uptake assay; format: cell-based
[26] = biological target: Transient receptor potential cation channel subfamily M member 7 (Mus musculus) (UniProt Q923J1); experiment: Inhibition of TRPM7 in mouse AML12 cells assessed as protection against oxygen glucose deprivation-induced cell death at 0.5 to 5 uM; format: cell-based
[27] = Inhibition of cell proliferation of mouse B16F10 cells at 10 uM incubated for 48 to 96 hrs; format: functional; conditions: B16-F10
[28] = biological target: Transient receptor potential cation channel subfamily M member 7 (Rattus norvegicus) (UniProt Q925B3); experiment: Inhibition of TRPM7 in rat H9c2 cells assessed as protection against oxygen glucose deprivation-induced cell death at 0.05 to 5 uM pre-treated for 24 hrs before OGD; format: cell-based
Mus musculus [29] = species on record: Mus musculus; experiment: Inhibition of sodium channel in mouse cortical neurons assessed as effect on Na+ currents
MCF7 = experiment: Inhibition of cell proliferation of human MCF7 cells at 10 uM incubated for 48 to 96 hrs; format: functional
[30] = biological target: Transient receptor potential cation channel subfamily M member 7 (Rattus norvegicus) (UniProt Q925B3); experiment: Inhibition of TRPM7 in rat retinal explants exposed to oxygen glucose deprivation condition for 1 hr assessed as protection against TRPM7-mediated cell death at by propidium iodide uptake assay
Mus musculus [31] = species on record: Mus musculus; experiment: Inhibition of calcium channel in mouse cortical neurons assessed as effect on Ca2+ currents; format: functional
[32] = biological target: Transient receptor potential cation channel subfamily M member 7 (Rattus norvegicus) (UniProt Q925B3); experiment: Inhibition of TRPM7 in rat H9c2 cells assessed as protection against oxygen glucose deprivation-induced cell death at 0.05 to 5 uM applied during OGD; format: cell-based
Y79 = experiment: Inhibition of cell proliferation of human Y79 cells at 10 uM incubated for 48 to 96 hrs; format: functional
[33] = biological target: Transient receptor potential cation channel subfamily M member 7 (Rattus norvegicus) (UniProt Q925B3); experiment: Inhibition of TRPM7 in cultured rat retinal ganglion cells exposed to oxygen glucose deprivation condition for 3 hrs assessed as protection against TRPM7-mediated cell death at by propidium iodide uptake assay; design: scale not given: the % may be the effect or the level left
HeLa [34] = experiment: Inhibition of cell proliferation of human HeLa cells at 10 uM incubated for 48 to 96 hrs; format: functional
[35] = biological target: Transient receptor potential cation channel subfamily M member 7 (Rattus norvegicus) (UniProt Q925B3); experiment: Inhibition of TRPM7 in rat H9c2 cells assessed as protection against oxygen glucose deprivation-induced cell death at 0.05 to 5 uM in presence of 1 uM nifedipine; format: cell-based
[36] = biological target: Transient receptor potential cation channel subfamily M member 7 (Rattus norvegicus) (UniProt Q925B3); experiment: Inhibition of TRPM7 in rat H9C2 cells exposed to oxygen glucose deprivation condition for 1 to 6 hrs assessed as reduction in TRPM7-mediated anoxic cell death in presence of 1 uM nifedipine by propidium iodide uptake assay; format: cell-based
U2OS = experiment: Inhibition of cell proliferation of human U2OS cells at 10 uM incubated for 48 to 96 hrs; format: functional
[37] = Inhibition of cell proliferation of human DMS53 cells at 10 uM incubated for 48 to 96 hrs; format: functional; conditions: DMS-53

Transient receptor potential cation channel subfamily M member 7 (Rattus norvegicus), sequence (Q925B3 whole entry): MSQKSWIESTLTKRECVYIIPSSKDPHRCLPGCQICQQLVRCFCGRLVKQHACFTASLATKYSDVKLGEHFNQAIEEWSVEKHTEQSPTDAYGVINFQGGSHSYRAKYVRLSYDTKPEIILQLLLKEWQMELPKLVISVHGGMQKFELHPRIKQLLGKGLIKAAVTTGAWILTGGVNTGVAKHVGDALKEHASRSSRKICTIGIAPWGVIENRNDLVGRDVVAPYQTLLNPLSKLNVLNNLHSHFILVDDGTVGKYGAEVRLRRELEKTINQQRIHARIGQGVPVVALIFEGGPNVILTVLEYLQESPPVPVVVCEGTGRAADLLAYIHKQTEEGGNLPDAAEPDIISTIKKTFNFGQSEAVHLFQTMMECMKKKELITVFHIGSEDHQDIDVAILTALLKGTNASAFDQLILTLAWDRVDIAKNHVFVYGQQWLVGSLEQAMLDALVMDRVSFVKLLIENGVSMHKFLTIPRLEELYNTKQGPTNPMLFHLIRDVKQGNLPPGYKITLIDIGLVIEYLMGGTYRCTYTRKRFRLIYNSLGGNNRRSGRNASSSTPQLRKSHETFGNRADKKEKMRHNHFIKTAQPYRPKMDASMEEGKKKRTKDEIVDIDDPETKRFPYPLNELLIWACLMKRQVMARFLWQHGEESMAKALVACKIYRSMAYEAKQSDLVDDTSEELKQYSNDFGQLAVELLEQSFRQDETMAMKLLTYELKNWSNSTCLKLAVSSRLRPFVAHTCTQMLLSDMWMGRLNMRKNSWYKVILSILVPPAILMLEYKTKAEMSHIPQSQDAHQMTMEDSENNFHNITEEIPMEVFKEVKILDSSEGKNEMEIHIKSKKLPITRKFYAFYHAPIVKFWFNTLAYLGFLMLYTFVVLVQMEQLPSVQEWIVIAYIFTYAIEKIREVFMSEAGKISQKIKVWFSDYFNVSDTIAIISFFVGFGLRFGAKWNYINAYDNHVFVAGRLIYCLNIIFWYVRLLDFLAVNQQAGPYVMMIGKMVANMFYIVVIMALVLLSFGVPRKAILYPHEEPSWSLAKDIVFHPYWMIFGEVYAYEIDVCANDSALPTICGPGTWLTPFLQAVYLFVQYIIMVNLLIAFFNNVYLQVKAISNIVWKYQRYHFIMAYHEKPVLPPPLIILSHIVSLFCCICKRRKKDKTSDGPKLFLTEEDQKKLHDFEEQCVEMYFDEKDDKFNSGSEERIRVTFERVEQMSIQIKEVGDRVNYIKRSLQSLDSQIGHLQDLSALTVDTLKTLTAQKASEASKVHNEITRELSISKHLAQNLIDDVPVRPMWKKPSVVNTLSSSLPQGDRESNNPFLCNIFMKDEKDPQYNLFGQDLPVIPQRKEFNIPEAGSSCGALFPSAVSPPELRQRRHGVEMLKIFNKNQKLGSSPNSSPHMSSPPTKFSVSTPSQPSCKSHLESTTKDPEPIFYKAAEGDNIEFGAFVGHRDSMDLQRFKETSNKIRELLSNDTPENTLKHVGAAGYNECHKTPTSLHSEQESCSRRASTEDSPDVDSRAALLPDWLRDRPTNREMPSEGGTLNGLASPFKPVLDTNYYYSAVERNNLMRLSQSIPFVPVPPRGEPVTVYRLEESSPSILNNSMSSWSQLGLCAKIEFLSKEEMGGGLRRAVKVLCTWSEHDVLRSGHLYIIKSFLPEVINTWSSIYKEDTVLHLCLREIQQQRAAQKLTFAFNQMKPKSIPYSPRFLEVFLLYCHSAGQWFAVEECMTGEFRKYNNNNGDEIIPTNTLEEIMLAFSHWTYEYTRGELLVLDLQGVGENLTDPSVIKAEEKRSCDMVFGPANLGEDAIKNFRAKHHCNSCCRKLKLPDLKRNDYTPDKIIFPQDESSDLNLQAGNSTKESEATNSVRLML
Transient receptor potential cation channel subfamily M member 7 (Mus musculus), sequence (Q923J1 whole entry): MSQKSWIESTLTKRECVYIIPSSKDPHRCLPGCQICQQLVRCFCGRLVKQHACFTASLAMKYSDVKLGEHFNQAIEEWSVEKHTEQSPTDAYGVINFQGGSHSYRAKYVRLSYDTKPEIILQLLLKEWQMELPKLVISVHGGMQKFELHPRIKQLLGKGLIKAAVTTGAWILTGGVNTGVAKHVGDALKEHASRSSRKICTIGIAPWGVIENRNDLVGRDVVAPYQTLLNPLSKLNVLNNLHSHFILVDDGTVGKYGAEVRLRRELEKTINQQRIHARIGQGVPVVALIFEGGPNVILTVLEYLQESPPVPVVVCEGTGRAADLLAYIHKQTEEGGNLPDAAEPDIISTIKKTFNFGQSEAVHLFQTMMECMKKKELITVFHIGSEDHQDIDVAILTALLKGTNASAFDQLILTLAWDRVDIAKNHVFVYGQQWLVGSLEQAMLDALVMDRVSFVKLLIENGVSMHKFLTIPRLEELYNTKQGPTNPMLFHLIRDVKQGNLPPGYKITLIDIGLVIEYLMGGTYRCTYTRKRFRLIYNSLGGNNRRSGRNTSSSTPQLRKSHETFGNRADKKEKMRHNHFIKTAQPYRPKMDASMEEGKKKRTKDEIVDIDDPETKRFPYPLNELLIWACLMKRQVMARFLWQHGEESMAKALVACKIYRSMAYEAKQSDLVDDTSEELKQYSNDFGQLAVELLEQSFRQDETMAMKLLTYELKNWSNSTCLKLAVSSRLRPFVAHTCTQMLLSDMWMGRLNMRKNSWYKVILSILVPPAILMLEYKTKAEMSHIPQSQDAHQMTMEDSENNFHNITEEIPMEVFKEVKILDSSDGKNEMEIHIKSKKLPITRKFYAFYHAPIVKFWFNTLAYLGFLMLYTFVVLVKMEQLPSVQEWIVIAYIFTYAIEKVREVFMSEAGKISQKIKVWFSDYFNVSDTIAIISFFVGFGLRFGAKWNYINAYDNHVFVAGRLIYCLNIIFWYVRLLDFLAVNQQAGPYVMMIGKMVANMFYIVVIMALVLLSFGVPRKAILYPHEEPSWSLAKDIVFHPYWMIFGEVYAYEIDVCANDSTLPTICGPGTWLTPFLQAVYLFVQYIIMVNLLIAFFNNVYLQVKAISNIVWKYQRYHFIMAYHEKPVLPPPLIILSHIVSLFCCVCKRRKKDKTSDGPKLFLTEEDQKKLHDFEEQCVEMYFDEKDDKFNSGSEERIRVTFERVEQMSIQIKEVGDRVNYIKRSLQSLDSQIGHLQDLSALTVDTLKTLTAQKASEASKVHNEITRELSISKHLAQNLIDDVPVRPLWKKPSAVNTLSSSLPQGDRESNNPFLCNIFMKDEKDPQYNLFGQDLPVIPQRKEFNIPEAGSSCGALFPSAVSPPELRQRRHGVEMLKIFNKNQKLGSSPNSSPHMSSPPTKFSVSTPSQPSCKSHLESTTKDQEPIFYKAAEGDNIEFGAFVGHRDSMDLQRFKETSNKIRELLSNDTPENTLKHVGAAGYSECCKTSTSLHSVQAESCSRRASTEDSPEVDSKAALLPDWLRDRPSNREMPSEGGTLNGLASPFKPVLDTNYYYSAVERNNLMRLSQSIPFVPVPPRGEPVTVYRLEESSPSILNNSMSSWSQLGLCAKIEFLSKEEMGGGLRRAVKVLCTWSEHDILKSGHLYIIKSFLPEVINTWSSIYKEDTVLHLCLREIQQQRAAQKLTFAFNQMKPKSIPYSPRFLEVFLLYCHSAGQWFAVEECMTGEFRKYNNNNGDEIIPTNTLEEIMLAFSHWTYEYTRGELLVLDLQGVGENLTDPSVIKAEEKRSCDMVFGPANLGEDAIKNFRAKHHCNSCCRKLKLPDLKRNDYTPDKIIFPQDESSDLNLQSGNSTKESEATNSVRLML

Compound | Activity [1] | inhibition (B16-F1) | inhibition [2] | Activity (H9c2 [4]) | inhibition [5] | inhibition at 10 µM [6] | inhibition (B16-F10) | inhibition [7] | inhibition [8] | inhibition [9] | Activity (H9c2 [11]) | inhibition (SW13 [12]) | inhibition (MDA-MB-231 [13]) | inhibition [14] | inhibition [16] | inhibition at 10 µM (SW13 [18]) | inhibition at 10 µM [19] | inhibition (Mus musculus [21]) | inhibition at 10 µM (MDA-MB-231 [22]) | inhibition [23] | further results
Cc1ccc(-n2c(-c3ccc(Cl)c(C)c3)csc2=N)c(C)c1.Cl | Non-toxic | Active | 80% | Non-toxic | Active | > 20% | Active | Active | Active | Active | Toxic | Active | Active | Active |  |  |  |  |  |  | inhibition (SW13 [3]): Active; inhibition (HeLa [10]): Active
Cc1ccc2c(c1)CCCN2C(=O)c1sc2ccccc2c1Cl | Non-toxic |  | 80% |  | Active | > 20% |  | Active | Active | Active |  |  |  | Active | Active | > 20% | > 20% | Active | > 20% | Active | inhibition [15]: Active; inhibition [17]: Active; inhibition [20]: Active; Activity (Mus musculus [24]): Non-toxic; inhibition [25]: Active; inhibition [26]: Active; inhibition at 10 µM [27]: > 20%; inhibition [28]: Active; inhibition (Mus musculus [29]): inactive; inhibition at 10 µM (MCF7): > 20%; inhibition [30]: Active; inhibition (Mus musculus [31]): inactive; inhibition [32]: Active; inhibition at 10 µM (Y79): > 20%; Activity [33]: 66%; inhibition at 10 µM (HeLa [34]): > 20%; inhibition [35]: Active; inhibition [36]: Active
O=C(Nc1ccc(F)cc1)C(Sc1ccc(Cl)cc1)c1ccccc1 (stereo not drawn) | Non-toxic | Active | 80% | Non-toxic | Active |  | Active | Active | Active | Active | Toxic | Active | Active | Active | Active | > 20% | > 20% | Active | > 20% | Active | inhibition at 10 µM (U2OS): > 20%; inhibition at 10 µM [27]: > 20%; inhibition at 10 µM [37]: > 20%; inhibition (Mus musculus [29]): inactive; inhibition at 10 µM (MCF7): > 20%; inhibition [30]: Active; inhibition (Mus musculus [31]): inactive; inhibition at 10 µM (Y79): > 20%; Activity [33]: 66%; inhibition at 10 µM (HeLa [34]): > 20%; inhibition [36]: Active
